In experiment [1] the test system is hardwood trees. The experiment in a line: Growth Response for Pre-Plant Treatments (Example 7), summary over treated species. Conditions: pre-plant (Table 7); all treated species, with the exceptions of chestnut oak and Chinese chestnut. It is filed as in vivo. As to the method:
(§1) Hybrid poplar seedlings were planted as stem cuttings.
(§2) Stem volume index is calculated as D^2H where D=groundline stem diameter and H=total height.

In experiment [2] the test system is hardwood trees. The experiment in a line: Growth Response for Post-Plant Treatments (Example 8), summary over treated species. It is filed as in vivo. Conditions: post-plant (Table 8); all treated species except for Chinese chestnut. The procedure:
as §1, §2

As to `Cc1ccc2c(c1)[C@H](Nc1nc(N)nc(C(C)F)n1)[C@@H](C)C2` (mixture of isomers) [indaziflam, N2-[(1R,2S)-2,3-dihydro-2,6-dimethyl-1H-inden-1-yl]-6-[(1RS)-1-fluoroethyl]-1,3,5-triazine-2,4-diamine], the growth response result in the experiment with hardwood trees [1] and with hardwood trees [2] was “positive growth response” each time.

Values taken from patent US20190380346A1, “METHOD OF IMPROVING HEALTH AND ROOTING OF HARDWOOD TREES” (Bayer CropScience LP, priority 2018, published 2019).
